Experiments:
PI-3 kinase γ = PI-3 kinase γ (Homo sapiens, UniProt P48736); test: PI3Kγ inhibitory activity, PI3-kinase HTRF assay (inhibition ratio); assay type: biochemical; settings: 0.5 h; PI3Kγ, compound at 50 μM
Outline: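 PI3Kγ preincubated 10 min with compound and PIP2 substrate (MgCl2, DTT), then ATP added for 30 min at room temperature. PIP3 detected by HTRF (665/620 nm ratio) after 18 h. Inhibition ratio at 50 or 10 μmol/L, normalised to no-compound and no-enzyme controls.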

[1] = target: T1, human ether-a-go-go related gene (hERG) channel (Homo sapiens, UniProt Q12809); test: hERG test, whole-cell patch-clamp; assay type: cell-based; settings: HEK293 cell expressing hERG; applied for 10 minutes; concentration not given
T1 construct: expressed in transfected cells; host or cells: HEK293
Excerpt: For the purpose of risk evaluation of QT interval extension of electrocardiogram, the activity on delayed rectification K^+ current (IKr), which plays an important role in a cardiac ventricle repolarization process, was examined using the HEK293 cell that was made to express human ether-a-go-go related gene (hERG) channel.
Using an automatic patch-clamp system (PatchXpress 7000A, Axon Instruments Inc.), by a whole-cell patch-clamp method, after the cell was maintained at a membrane potential of −80 mV, IKr induced upon applying depolarizing stimulation of +50 mV for 2 seconds and further applying repolarizing stimulation of −50 mV for 2 seconds was recorded. After generated electric current became stable, a test substance dissolved at an intended concentration in extracellular fluid (137 mmol/L NaCl, 4 mmol/L KCl, 1.8 mmol/L CaCl2.2H2O, 1 mmol/L MgCl2.6H2O, 10 mmol/L glucose, 10 mmol/L HEPES (4-(2-hydroxyethyl)-1-piperazineethanesulfonic acid), pH=7.4) was applied to the cell for 10 minutes under room temperature condition. From the obtained IKr, the absolute value of the maximum tail current was measured using analysis software (DataXpress ver. 1, Molecular Devices Corporation) and the value of the electric current in a maintained membrane potential as baseline. Moreover, an inhibition ratio for the maximum tail current prior to the application of the test substance was calculated and then compared with a group of media-application (0.1% dimethylsulfoxide solution) to evaluate influence of the test substance on IKr.

[2] = system: Salmonella typhimurium TA98 line, TA100 line; test: FAT test (mutagenicity); design: key: When the mutagenicity is negative, the compound is shown as (−); When positive, the compound is shown as (+); settings: TA98 and TA100 lines; non-metabolism-activation and metabolism-activation conditions
Procedure: 20 μL of Salmonella enterica subsp. typhimurium (Salmonella typhimurium TA98 line, TA100 line) cryopreserved was inoculated to 10 mL of liquid nutrient medium (2.5% Oxoid nutrient broth No. 2) and then precultured at 37° C. for 10 hours with shaking. Regarding TA98 line, after 9 mL of a bacterial suspension was centrifuged (2000×g, 10 minutes) to remove the culture solution, the bacteria was suspended in 9 mL of Micro F buffer solution (K2HPO4: 3.5 g/L, KH2PO4: 1 g/L, (NH4)2SO4: 1 g/L, tri-sodium citric acid dihydrate: 0.25 g/L, MgSO4.7H2O: 0.1 g/L), and then added to 110 mL of Exposure media (Micro F buffer solution containing biotin: 8 μg/mL, histidine: 0.2 μg/mL, glucose: 8 mg/mL). Regarding TA 100 line, 120 mL of Exposure media was added to 3.16 mL of the bacterial suspension to prepare a test bacterial suspension. 12 μL of a solution of a test substance in DMSO (diluted eight times in a common ratio of 2 from the maximum dose of 50 mg/mL); 12 μL of DMSO as a negative control; 50 μg/mL 4-nitroquinoline-1-oxide solution in DMSO for TA98 line or 0.25 μg/mL 2-(2-furyl)-3-(5-nitro-2-furyl)acrylamide solution in DMSO as a positive control for TA 100 line in the case of a non-metabolism-activation condition; 12 μL of 40 μg/mL 2-aminoanthracene solution in DMSO for TA98 line or 20 μg/mL of 2-aminoanthracene solution in DMSO for TA100 line in the case of a metabolism-activation condition; were each mixed with 588 μL of the test bacterial suspension (in the case of a metabolism activation condition, a mixed solution of 498 μL of the test bacterial suspension and 90 μL S9 mix) and then cultured at 37° C. at 90 minutes with shaking. 460 μL of the bacterial suspension to which a test substance was exposed was mixed with 230 μL of Indicator media (a Micro F buffer solution containing 8 μg/mL biotin, 0.2 μg/mL histidine, 8 mg/mL glucose, and 37.5 μg/mL bromocresol purple). 50 μL thereof was dispensed to microplate 48 wells/dose and then statically cultured at 37° C. for 3 days. In a well containing bacteria which obtained proliferation potency by mutation of the amino acid (histidine) synthetase gene, the change of pH caused the color change from purple to yellow. Thus, in 48 wells per dose, the number of the bacteria-proliferation wells in which the color changed to yellow was counted, compared with a group of negative controls, and then evaluated. When the mutagenicity is negative, the compound is shown as (−). When positive, the compound is shown as (+).

CYP2C19 = target: T2, CYP2C19 (Homo sapiens, UniProt P33261); test: CYP inhibition test, pooled human liver microsome, CYP2C19; assay type: in vitro ADME; settings: 4′-hydroxylation of mephenyloin
T2 construct: enzyme: pooled human liver microsome 0.2 mg protein/mL; from tissue; host or cells: pooled human liver microsome
Excerpt: (§1) O-de-ethylation of 7-ethoxyresorufin (CYP1A2), methyl-hydroxylation of tolbutamide (CYP2C9), 4′-hydroxylation of mephenyloin (CYP2C19), O-demethylation of dextromethorphan (CYP2D6), and hydroxylation of terfenadine (CYP3A4), which are typical substrate for metabolic reactions of human main CYP5 molecular species (CYP1A2, 2C9, 2C19, 2D6, and 3A4), were adopted as indexes.
(§2) The reaction conditions are as follows: substrate: 0.5 μmol/L of ethoxyresorufin (CYP1A2), 100 μmol/L of tolbutamide (CYP2C9), […] of S-mephenyloin (CYP2C19), 5 μmol/L of dextromethorphan (CYP2D6), and 1 μmol/L of terfenadine (CYP3A4); reaction time; 15 minutes; reaction temperature: 37° C.; enzyme: pooled human liver microsome 0.2 mg protein/mL; test drug concentration: 1, 5, 10, and 20 μmol/L (4 points).
(§3) In a 96-well plate, as a reaction solution, five kinds of substrates, a human liver microsome, and a test drug were added to 50 mmol/L Hepes buffer solution in the aforementioned ratio. A coenzyme NADPH was added to start a metabolic reaction, which is an index. After reacting at 37° C. for 15 minutes, a solution of methanol/acetonitrile (1/1 (v/v)) was added to quench the reaction. After centrifugation at 3000 rpm for 15 minutes, resorufin (CYP1A2 metabolite) in the supernatant was quantitated with a fluorescence multilabel counter, and hydroxylated tolbutamide (CYP2C9 metabolite), 4′-hydroxylated mephenyloin (CYP2C19 metabolite), […], terfenadine in alcohol form (CYP3A4 metabolite) were quantitated with LC/MS/MS.
(§4) The case wherein only DMSO (a solvent which dissolved a drug) was added to a reaction system was defined as a control (100%). When a test drug solution was added, the remaining activity (%) at each concentration was calculated, and then IC50 was calculated with a concentration and an inhibition ratio by an inverse estimation using a logistic model.

CYP2D6 = target: T3, CYP2D6 (Homo sapiens, UniProt P10635); test: CYP inhibition test, pooled human liver microsome, CYP2D6; assay type: in vitro ADME; settings: O-demethylation of dextromethorphan
T3 construct: enzyme: pooled human liver microsome 0.2 mg protein/mL; from tissue; host or cells: pooled human liver microsome
Excerpt: as §1, §2, §3, §4

CYP3A4 = target: T4, CYP3A4 (Homo sapiens, UniProt P08684); test: CYP inhibition test, pooled human liver microsome, CYP3A4; assay type: in vitro ADME; settings: hydroxylation of terfenadine
T4 construct: enzyme: pooled human liver microsome 0.2 mg protein/mL; from tissue; host or cells: pooled human liver microsome
Excerpt: as §1, §2, §3, §4

CYP1A2 = target: T5, CYP1A2 (Homo sapiens, UniProt P05177); test: CYP inhibition test, pooled human liver microsome, CYP1A2; assay type: in vitro ADME; settings: O-de-ethylation of 7-ethoxyresorufin
T5 construct: enzyme: pooled human liver microsome 0.2 mg protein/mL; from tissue; host or cells: pooled human liver microsome
T5 sequence (P05177 1-516): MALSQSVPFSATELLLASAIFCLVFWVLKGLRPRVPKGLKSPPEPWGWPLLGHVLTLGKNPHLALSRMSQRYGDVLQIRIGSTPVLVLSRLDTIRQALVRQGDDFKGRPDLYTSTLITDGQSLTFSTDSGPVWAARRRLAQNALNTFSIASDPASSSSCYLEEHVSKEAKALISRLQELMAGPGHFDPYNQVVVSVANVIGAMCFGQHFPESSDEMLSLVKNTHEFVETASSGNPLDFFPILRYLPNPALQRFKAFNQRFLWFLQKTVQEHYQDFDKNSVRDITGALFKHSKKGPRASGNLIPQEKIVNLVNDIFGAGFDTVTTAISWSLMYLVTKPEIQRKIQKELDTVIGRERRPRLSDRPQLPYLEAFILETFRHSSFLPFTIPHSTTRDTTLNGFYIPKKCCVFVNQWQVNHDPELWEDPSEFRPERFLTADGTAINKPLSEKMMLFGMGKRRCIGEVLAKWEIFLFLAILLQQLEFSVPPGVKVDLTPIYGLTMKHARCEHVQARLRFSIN
Excerpt: as §1, §2, §3, §4

CYP2C9 = target: T6, CYP2C9 (Homo sapiens, UniProt P11712); test: CYP inhibition test, pooled human liver microsome, CYP2C9; assay type: in vitro ADME; settings: methyl-hydroxylation of tolbutamide
T6 construct: enzyme: pooled human liver microsome 0.2 mg protein/mL; from tissue; host or cells: pooled human liver microsome
Excerpt: as §1, §2, §3, §4

Solubility test = assay type: physicochemical; settings: kinetic from dmso stock; artificial intestinal juice pH 6.8, 1% DMSO, 25° C. for 16 hours
Outline: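 Kinetic solubility with 1% DMSO: compound from 10 mmol/L DMSO stock spiked into pH 6.8 phosphate artificial intestinal juice, held 16 h at 25 °C, then suction-filtered. Filtrate diluted twofold in methanol/water (1/1) and quantified by HPLC or LC/MS/MS via absolute calibration.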

PI-3 kinase γ, sequence (P48736 whole entry): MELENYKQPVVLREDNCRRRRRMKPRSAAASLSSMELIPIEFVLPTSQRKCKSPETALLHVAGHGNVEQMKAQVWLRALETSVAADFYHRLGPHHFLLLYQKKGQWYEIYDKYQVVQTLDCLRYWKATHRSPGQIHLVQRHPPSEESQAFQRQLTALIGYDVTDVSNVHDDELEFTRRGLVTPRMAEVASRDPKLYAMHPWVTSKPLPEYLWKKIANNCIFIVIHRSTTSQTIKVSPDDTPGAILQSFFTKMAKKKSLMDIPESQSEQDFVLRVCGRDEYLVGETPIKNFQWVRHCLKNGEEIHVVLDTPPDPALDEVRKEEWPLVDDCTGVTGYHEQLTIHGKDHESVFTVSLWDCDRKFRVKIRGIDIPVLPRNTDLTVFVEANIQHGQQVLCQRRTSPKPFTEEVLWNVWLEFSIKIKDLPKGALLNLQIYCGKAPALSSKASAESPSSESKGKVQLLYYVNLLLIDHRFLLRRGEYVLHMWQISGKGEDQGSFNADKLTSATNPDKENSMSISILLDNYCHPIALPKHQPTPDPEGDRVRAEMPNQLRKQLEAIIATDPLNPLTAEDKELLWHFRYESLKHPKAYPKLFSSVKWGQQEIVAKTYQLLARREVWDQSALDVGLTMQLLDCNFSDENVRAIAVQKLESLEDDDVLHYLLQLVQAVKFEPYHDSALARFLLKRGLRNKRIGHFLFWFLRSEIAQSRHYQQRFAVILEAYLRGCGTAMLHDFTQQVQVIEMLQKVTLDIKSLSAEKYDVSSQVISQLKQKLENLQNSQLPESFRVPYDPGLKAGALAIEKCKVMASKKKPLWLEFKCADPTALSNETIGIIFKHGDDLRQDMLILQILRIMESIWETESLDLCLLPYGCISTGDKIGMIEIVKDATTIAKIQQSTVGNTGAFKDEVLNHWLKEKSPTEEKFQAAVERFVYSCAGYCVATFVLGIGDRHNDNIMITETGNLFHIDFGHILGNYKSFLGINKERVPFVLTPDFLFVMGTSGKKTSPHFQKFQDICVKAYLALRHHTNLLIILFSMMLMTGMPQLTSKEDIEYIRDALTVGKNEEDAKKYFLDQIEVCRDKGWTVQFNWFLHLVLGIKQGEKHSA
T1 sequence (Q12809 whole entry): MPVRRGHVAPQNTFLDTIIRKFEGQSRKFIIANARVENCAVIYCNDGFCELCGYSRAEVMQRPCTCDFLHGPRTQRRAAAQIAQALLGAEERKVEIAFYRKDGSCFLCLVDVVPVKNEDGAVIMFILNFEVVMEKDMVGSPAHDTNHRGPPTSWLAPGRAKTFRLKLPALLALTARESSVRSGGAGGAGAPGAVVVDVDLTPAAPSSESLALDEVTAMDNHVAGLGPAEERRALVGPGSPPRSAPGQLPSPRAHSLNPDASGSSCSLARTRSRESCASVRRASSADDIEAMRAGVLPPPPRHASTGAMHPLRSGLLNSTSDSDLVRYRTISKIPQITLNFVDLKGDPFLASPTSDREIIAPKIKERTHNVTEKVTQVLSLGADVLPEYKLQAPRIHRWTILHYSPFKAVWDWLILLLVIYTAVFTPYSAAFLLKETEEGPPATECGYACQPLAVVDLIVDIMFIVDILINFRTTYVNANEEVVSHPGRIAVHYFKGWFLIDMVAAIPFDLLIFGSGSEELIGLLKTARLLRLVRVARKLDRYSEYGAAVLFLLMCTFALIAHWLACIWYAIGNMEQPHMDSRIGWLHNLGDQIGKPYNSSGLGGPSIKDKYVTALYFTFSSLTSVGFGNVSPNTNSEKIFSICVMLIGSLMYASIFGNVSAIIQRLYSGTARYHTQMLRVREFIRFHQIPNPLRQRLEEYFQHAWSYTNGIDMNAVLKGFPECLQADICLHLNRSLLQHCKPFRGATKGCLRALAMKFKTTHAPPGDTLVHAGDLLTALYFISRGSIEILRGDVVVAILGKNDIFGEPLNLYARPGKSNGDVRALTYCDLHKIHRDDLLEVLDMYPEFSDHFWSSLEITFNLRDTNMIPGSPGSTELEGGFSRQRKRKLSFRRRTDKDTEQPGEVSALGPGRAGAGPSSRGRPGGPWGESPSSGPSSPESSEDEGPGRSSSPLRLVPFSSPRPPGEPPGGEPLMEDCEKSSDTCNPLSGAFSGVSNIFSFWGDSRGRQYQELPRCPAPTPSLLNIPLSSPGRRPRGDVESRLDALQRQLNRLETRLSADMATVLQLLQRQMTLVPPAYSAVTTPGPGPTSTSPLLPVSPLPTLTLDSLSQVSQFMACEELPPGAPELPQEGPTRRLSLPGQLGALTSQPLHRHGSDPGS
T2 sequence (P33261 whole entry): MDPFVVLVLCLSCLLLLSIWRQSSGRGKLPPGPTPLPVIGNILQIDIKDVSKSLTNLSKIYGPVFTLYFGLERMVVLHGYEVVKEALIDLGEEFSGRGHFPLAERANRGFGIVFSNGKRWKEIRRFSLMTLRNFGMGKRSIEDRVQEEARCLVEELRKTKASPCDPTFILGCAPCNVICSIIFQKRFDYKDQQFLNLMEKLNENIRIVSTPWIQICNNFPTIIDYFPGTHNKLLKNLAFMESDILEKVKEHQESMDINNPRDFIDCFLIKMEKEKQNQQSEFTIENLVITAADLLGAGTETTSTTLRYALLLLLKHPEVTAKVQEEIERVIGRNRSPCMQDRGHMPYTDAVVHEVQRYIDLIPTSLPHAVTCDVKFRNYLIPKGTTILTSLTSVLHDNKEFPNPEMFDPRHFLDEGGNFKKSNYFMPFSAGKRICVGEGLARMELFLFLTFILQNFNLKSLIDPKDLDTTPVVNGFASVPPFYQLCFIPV
T3 sequence (P10635 whole entry): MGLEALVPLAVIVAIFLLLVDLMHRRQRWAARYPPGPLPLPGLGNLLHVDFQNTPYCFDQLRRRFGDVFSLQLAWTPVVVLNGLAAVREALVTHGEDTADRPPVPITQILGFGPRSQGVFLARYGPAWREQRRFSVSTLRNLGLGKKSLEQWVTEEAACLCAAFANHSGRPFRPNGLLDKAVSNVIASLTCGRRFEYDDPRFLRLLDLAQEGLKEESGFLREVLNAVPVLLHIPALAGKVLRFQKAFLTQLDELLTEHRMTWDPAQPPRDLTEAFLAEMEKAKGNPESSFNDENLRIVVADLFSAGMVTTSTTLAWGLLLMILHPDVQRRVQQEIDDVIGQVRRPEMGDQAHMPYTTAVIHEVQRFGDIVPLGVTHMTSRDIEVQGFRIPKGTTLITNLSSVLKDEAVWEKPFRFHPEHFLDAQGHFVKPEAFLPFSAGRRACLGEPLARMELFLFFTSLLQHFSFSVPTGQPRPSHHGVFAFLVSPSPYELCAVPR
T6 sequence (P11712 whole entry): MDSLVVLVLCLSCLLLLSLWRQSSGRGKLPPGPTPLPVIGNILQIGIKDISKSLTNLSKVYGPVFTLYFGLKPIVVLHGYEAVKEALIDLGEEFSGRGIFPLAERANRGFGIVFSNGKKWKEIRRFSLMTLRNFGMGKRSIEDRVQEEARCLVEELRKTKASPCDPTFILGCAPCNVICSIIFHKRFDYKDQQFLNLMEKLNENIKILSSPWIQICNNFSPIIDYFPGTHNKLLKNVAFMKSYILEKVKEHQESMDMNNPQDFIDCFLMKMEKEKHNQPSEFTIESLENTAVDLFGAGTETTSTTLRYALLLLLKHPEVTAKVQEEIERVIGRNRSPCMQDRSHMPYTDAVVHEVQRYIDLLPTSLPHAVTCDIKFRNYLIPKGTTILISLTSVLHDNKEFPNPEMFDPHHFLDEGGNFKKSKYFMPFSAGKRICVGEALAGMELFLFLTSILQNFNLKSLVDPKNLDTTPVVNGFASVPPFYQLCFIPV
T4 sequence (P08684 whole entry): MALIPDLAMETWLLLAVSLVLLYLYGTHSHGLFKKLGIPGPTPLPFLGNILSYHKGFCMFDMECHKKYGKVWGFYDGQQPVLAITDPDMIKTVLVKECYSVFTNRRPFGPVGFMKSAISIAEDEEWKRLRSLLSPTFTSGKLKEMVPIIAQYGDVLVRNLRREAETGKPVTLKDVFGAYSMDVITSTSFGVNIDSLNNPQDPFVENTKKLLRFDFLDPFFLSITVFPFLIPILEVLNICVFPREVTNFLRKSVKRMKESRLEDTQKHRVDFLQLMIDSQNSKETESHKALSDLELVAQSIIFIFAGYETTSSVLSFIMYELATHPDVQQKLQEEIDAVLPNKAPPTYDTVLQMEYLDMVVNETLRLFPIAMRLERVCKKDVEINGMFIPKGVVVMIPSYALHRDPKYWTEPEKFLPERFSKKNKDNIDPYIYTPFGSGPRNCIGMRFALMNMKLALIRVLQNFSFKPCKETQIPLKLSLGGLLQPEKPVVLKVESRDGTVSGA

With `CNC(=O)Nc1cc2n(n1)CCN2c1ccc(C(N)=O)cc1` [Compound I-160] the inhibition at 50 µM (PI-3 kinase γ) was at least 95% and the “inhibition ratio for the maximum tail current (IKr)” value [1] was −0.4%.
For `CNC(=O)Nc1cc2n(n1)CCN2c1cc(Br)cc(C(=O)N2CCCC2)c1` [Compound I-181], the “mutagenicity (FAT test)” value [2] was “(−)” and the inhibition at 50 µM (PI-3 kinase γ) was at least 95%.
Compound `CNC(=O)Nc1cc2n(n1)CCN2c1cc(Br)cc(C(=O)N2CCNCC2)c1` [Compound I-185] has an IC50 (CYP2C19) of over 20 µM, an IC50 (CYP2D6) of over 20 µM and an IC50 (CYP3A4) of over 20 µM. For the same compound, the IC50 (CYP1A2) was over 20 µM, the IC50 (CYP2C9) was over 20 µM and the inhibition at 50 µM (PI-3 kinase γ) was at least 95%. The solubility at 16 h (Solubility test) was over 50 µM and the “inhibition ratio for the maximum tail current (IKr)” value [1] was 8.3%.
With `COc1cc(N2CCc3nc(NC(=O)Nc4ccccc4)sc3C2)nc(OC)n1` [Compound I-203] the “mutagenicity (FAT test)” value [2] was “(−)” and the inhibition at 50 µM (PI-3 kinase γ) was 95%.

Source: patent US20110230472A1, “RING-FUSED AZOLE DERIVATIVE HAVING PI3K-INHIBITING ACTIVITY” (Shionogi & Co., Ltd., priority 2008, published 2011)
